Data from patent publication US7432388B2 (Allergan, Inc., priority 2003, dated 2008).

Tests used:
RARα = target: T1, RARα (Homo sapiens, UniProt P10276); assay: ligand binding assay; conditions: expressed in Ki numbers, read-out: RAR Binding α
T1 sequence (P10276 1-462): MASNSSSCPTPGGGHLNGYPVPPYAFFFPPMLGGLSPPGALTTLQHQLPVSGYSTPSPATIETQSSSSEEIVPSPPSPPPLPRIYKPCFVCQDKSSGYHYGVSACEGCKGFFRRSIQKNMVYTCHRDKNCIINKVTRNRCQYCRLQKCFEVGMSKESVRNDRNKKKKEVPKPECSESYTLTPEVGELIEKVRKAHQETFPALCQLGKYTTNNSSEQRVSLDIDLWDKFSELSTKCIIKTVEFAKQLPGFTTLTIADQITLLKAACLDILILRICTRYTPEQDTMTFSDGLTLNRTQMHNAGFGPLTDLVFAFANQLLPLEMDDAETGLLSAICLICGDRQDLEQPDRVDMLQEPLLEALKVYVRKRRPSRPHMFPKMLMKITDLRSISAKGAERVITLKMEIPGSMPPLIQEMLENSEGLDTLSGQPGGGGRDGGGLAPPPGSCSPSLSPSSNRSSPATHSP
Source text: (§1) A holoreceptor transactivation assay and a ligand binding assay which measure the antagonist/agonist like activity of the compounds of the invention, or their ability to bind to the several retinoid receptor subtypes, respectively, are described in published PCT Application No. WO WO93/11755 (particularly on pages 30-33 and 37-41) published on Jun. 24, 1993, the specification of which is also incorporated herein by reference. A detailed experimental procedure for holoreceptor transactivations has been described by Heyman et al. Cell 68, 397-406, (1992); Allegretto et al. J. Biol. Chem. 268, 26625-26633, and Mangelsdorf et al. The Retinoids: Biology, Chemistry and Medicine, pp 319-349, Raven Press Ltd., New York, which are expressly incorporated herein by reference. The results obtained in this assay are expressed in EC50 numbers, as they are also in the chimeric receptor transactivation assay. The other functional assay running in the presence of 1 nM all-trans retinoic acid, namely PGA-RAR antagonist assay (utilizing glucocorticoid-retinoid chimeric receptors), is a modified chimeric receptor transactivation assay which tests the compounds for their antagonist-like activity in the RARα, RARγ and RARγ receptor subtypes. The results from this assay are normally expressed in IC50 numbers (See Teng et al. J. Med. Chem. 40, 2445-2452, (1997) incorporated herein by reference.)
The results of the ligand binding assay are expressed in Ki numbers. (See Cheng et al. Biochemical Pharmacology Vol. 22 pp 3099-3108, expressly incorporated herein by reference.)

RARγ [1] = target: T2, RARγ (Homo sapiens, UniProt P13631); assay: ligand binding assay; conditions: expressed in Ki numbers, read-out: RAR Binding γ
T2 sequence (P13631 1-454): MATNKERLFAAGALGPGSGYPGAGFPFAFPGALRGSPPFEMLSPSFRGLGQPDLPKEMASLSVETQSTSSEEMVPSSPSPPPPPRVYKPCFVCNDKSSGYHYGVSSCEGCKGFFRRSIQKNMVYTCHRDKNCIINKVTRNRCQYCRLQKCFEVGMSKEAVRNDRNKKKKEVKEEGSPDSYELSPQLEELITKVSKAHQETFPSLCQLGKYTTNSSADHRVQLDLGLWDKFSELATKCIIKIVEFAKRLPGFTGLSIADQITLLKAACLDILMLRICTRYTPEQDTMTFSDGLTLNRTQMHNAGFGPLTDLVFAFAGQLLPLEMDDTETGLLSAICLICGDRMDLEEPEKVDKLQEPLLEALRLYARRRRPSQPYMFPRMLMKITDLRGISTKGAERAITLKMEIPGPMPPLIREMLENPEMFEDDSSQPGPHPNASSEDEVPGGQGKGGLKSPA
Description: (§2) The results obtained in this assay are expressed in EC50 numbers, as they are also in the chimeric receptor transactivation assay. The other functional assay running in the presence of 1 nM all-trans retinoic acid, namely PGA-RAR antagonist assay (utilizing glucocorticoid-retinoid chimeric receptors), is a modified chimeric receptor transactivation assay which tests the compounds for their antagonist-like activity in the RARα, RARγ and RARγ receptor subtypes.
The results of the ligand binding assay are expressed in Ki numbers.

RARβ = target: T3, RARβ (Homo sapiens, UniProt P10826); assay: chimeric receptor transactivation assay (agonist-like activity); type: cell-based; design: RAR EC50 (nM) (% Efficiency) β; conditions: read-out: RAR EC50 (nM) (% Efficiency) β
T3 sequence (P10826 183-417 limits assumed): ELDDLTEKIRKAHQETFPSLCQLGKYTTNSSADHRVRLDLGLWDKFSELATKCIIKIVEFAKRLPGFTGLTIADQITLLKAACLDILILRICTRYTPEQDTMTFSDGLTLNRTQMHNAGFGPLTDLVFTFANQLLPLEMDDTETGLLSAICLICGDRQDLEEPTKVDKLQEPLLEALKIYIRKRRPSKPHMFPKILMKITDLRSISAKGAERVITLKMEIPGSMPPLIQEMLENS
Description: Specifically, one assay in which the compounds were tested is a chimeric receptor transactivation assay which tests for agonist-like activity in the RARα, RARγ and RARγ receptor subtypes, and which is based on work published by Feigner P. L. and Holm M (1989) Focus, 112 is described in detail in U.S. Pat. No. 5,455,265. The specification of U.S. Pat. No. 5,455,265 is hereby expressly incorporated by reference.
as §1

RARγ [2] = target: T4, RARγ (Homo sapiens, UniProt P13631); assay: as above; type: cell-based; design: RAR EC50 (nM) (% Efficiency) γ; conditions: read-out: RAR EC50 (nM) (% Efficiency) γ
T4 sequence (P13631 185-419 limits assumed): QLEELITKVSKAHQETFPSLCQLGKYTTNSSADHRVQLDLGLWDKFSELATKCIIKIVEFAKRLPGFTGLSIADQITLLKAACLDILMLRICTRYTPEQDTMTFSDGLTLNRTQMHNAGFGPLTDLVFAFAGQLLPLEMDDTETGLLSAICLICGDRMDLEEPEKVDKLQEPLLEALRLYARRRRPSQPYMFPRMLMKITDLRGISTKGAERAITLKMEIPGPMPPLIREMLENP

RARγ [3] = target: T4, RARγ; assay: PGA-RAR antagonist assay (glucocorticoid-retinoid chimeric receptors); type: cell-based; design: RAR IC50 (nM) γ; other: in the presence of 1 nM all-trans retinoic acid; fused on or other part: Glucocorticoid receptor DNA-recognition part in place of RAR's own; conditions: for IC50: in the presence of 1 nM all-trans retinoic acid, read-out: RAR IC50 (nM) γ; for RAR γ (% Inhibition): percentage of the maximum inhibition of the activity induced by 1 nM all-trans retinoic acid
Description: as §2

Structure (SMILES)	Ki (RARα)	Ki (RARγ [1])	EC50 (RARβ)	EC50 (RARγ [2])	IC50 (RARγ [3])	RAR γ (% Inhibition) (RARγ [3])
Cc1ccc(C2=CC(C)(C)c3cc(C(/C=C/c4ccc(C(=O)O)cc4)=N\O)ccc32)cc1 [Compound 16b]	7000 nM	145 nM	> 10000 nM	> 10000 nM	67 nM	54%
Cc1ccc(C2=CCC(C)(C)c3cc(C(/C=C/c4ccc(C(=O)O)cc4)=N/O)ccc32)cc1 [Compound 7a, E-4-[3-(8,8-Dimethyl-5-p-tolyl-7,8-dihydro-naphthalen-2-yl)-3-hydroxyimino-propenyl]-benzoic acid]	3000 nM	3 nM	> 10000 nM	> 10000 nM	0.6 nM	95%
Cc1ccc(C2=CC(C)(C)c3cc(C(/C=C/c4ccc(C(=O)O)cc4F)=N\O)ccc32)cc1 [Compound 18b, Z-4-[3-(3,3-Dimethyl-1-p-tolyl-3H-inden-5-yl)-3-hydroxyimino-propenyl]-3-fluoro-benzoic acid]	23000 nM	717 nM	> 10000 nM	> 10000 nM	226 nM	58%
Cc1ccc(C2=CC(C)(C)c3cc(C(/C=C/c4ccc(C(=O)O)cc4)=N/O)ccc32)cc1 [Compound 16a]	9000 nM	25 nM	> 10000 nM	> 10000 nM	27 nM	78%
Cc1ccc(C2=CCC(C)(C)c3cc(C(/C=C/c4ccc(C(=O)O)cc4F)=N\O)ccc32)cc1 [Compound 9b, Z-4-[3-(8,8-Dimethyl-5-p-tolyl-7,8-dihydro-naphthalen-2-yl)-3-hydroxyimino-propenyl]-3-fluoro-benzoic acid]	13000 nM	133 nM	> 10000 nM	> 10000 nM	13 nM	78%
Cc1ccc(C2=CC(C)(C)c3cc(C(/C=C/c4ccc(C(=O)O)cc4F)=N/O)ccc32)cc1 [Compound 18a, E-4-[3-(3,3-Dimethyl-1-p-tolyl-3H-inden-5-yl)-3-hydroxyimino-propenyl]-3-fluoro-benzoic acid]	12000 nM	70 nM	> 10000 nM	> 10000 nM	52 nM	70%
Cc1ccc(C2=CCC(C)(C)c3cc(C(/C=C/c4ccc(C(=O)O)cc4F)=N/O)ccc32)cc1 [Compound 9a, E-4-[3-(8,8-Dimethyl-5-p-tolyl-7,8-dihydro-naphthalen-2-yl)-3-hydroxyimino-propenyl]-3-fluoro-benzoic acid]	13000 nM	11 nM	> 10000 nM	> 10000 nM	5 nM	90%
Cc1ccc(C2=CCC(C)(C)c3cc(C(/C=C/c4ccc(C(=O)O)cc4)=NO)ccc32)cc1 (racemic) [Compound 7c, 4-[3-(8,8-Dimethyl-5-p-tolyl-7,8-dihydro-naphthalen-2-yl)-3-hydroxyimino-propenyl]-benzoic acid]	2900 nM	6 nM	> 10000 nM	> 10000 nM	2 nM	108%
Cc1ccc(C2=CCC(C)(C)c3cc(C(/C=C/c4ccc(C(=O)O)cc4)=N\O)ccc32)cc1 [Compound 7b, Z-4-[3-(8,8-dimethyl-5-p-tolyl-7,8-dihydro-naphthalen-2-yl)-3-hydroxyimino-propenyl]-benzoic acid]	5200 nM	29 nM	> 10000 nM	> 10000 nM	25 nM	88%
